From ChEMBL document CHEMBL2146467, “Generation and exploration of new classes of antitubercular agents: The optimization of oxazolines, oxazoles, thiazolines, thiazoles to imidazo[1,2-a]pyridines and isomeric 5,6-fused scaffolds” (Bioorg Med Chem, 2012)
In brackets after ≈: the same amount, converted by molar mass.

Legend:
Type in all cases: functional
Conditions in all cases: 336 h
[1] = test system: Mycobacterium tuberculosis; test: Antimycobacterial activity against isoniazid-,rifampin-,ethambutol-,streptomycin-,kanamycin-,ofloxacin-resistant Mycobacterium tuberculosis after 14 days
[2] = test system: Mycobacterium tuberculosis; test: Antimycobacterial activity against isoniazid-,rifampin-,ethambutol-,rifabutin-resistant Mycobacterium tuberculosis after 14 days
[3] = test system: Mycobacterium tuberculosis; test: Antimycobacterial activity against isoniazid-,rifampin-,ethambutol-,kanamycin-,ofloxacin-resistant Mycobacterium tuberculosis after 14 days

SMILES	MIC90 [1] [µM]	MIC90 [2] [µM]	MIC90 [3] [µM]
O=[N+]([O-])c1cn2c(n1)OC[C@@H](OCc1ccc(OC(F)(F)F)cc1)C2 [PRETOMANID]	0.86 (≈ 0.309 µg/mL)	0.45 (≈ 0.162 µg/mL)	0.22 (≈ 0.079 µg/mL)
Cc1ccn2c(C(=O)OCc3ccccc3)c(C)nc2c1	< 0.04	0.57 (≈ 0.16 µg/mL)	< 0.04
O=C(OCc1ccccc1)c1csc(-c2ccccc2)n1	16.9 (≈ 4.99 µg/mL)	33.9 (≈ 10 µg/mL)	16.9 (≈ 4.99 µg/mL)
O=C(OCc1ccccc1)c1coc(-c2ccccc2)n1	4.4 (≈ 1.23 µg/mL)	–	8.9 (≈ 2.49 µg/mL)
